Assay results taken from PubChem BioAssay (NCI).
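In this assay, cells in 96-well plates receive the compound at five concentrations for 48 hours. Endpoints are linearly interpolated between the surrounding concentrations. TGI denotes the concentration required for complete inhibition of growth.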

Tests used:
Experiment in all cases: inhibition of tumour cell growth, NCI panel, 48 h
A549 NSCLC = system: A549 NSCLC
ACHN renal = system: ACHN renal
DU-145 prostate = system: DU-145 prostate
EKVX NSCLC = system: EKVX NSCLC
HCC-2998 colon = system: HCC-2998 colon
K-562 leukemia = system: K-562 leukemia
NCI-H226 lung = system: NCI-H226 lung
NCI/ADR-RES ovarian = system: NCI/ADR-RES ovarian
PC-3 prostate = system: PC-3 prostate
SF-295 CNS = system: SF-295 CNS
SN12C renal = system: SN12C renal
SNB-19 CNS = system: SNB-19 CNS
SW-620 colon = system: SW-620 colon
TK-10 renal = system: TK-10 renal
UACC-257 melanoma = system: UACC-257 melanoma

## CCCCCCCC(=O)OC[n+]1ccc(-c2c(COC(=O)NC(C)C)c(COC(=O)NC(C)C)c3n2CCC3)cc1
A549 NSCLC
  TGI: > 100 µM
ACHN renal
  TGI: 68.9 µM
DU-145 prostate
  TGI: > 59.8 µM
EKVX NSCLC
  TGI: > 100 µM
HCC-2998 colon
  TGI: > 100 µM
K-562 leukemia
  TGI: > 100 µM
NCI-H226 lung
  TGI: > 100 µM
NCI/ADR-RES ovarian
  TGI: > 100 µM
PC-3 prostate
  TGI: > 100 µM
SF-295 CNS
  TGI: > 100 µM
SN12C renal
  TGI: > 100 µM
SNB-19 CNS
  TGI: > 100 µM
SW-620 colon
  TGI: 60.8 µM
TK-10 renal
  TGI: > 100 µM
UACC-257 melanoma
  TGI: > 100 µM

## OC(CC(CC(O)(C(F)(F)Cl)C(F)(F)Cl)=NNc1ccccc1)(C(F)(F)Cl)C(F)(F)Cl
A549 NSCLC
  TGI: > 10 µM
ACHN renal
  TGI: 9.12 µM
DU-145 prostate
  TGI: 9.08 µM
EKVX NSCLC
  TGI: 7.35 µM
HCC-2998 colon
  TGI: > 10 µM
K-562 leukemia
  TGI: > 10 µM
NCI-H226 lung
  TGI: 7.89 µM
NCI/ADR-RES ovarian
  TGI: 8.62 µM
PC-3 prostate
  TGI: 4.7 µM
SF-295 CNS
  TGI: 7.09 µM
SN12C renal
  TGI: > 10 µM
SNB-19 CNS
  TGI: > 10 µM
SW-620 colon
  TGI: > 10 µM
TK-10 renal
  TGI: 9.04 µM
UACC-257 melanoma
  TGI: 5.24 µM

## C=C(C)[C@@H]1C[C@H]2O[C@](O)(C(=C)CC(=O)/C=C(/C)C[C@@H]3OC(=O)[C@]24O[C@@H]34)[C@H]1O
A549 NSCLC
  TGI: > 100 µM
ACHN renal
  TGI: > 100 µM
DU-145 prostate
  TGI: > 100 µM
EKVX NSCLC
  TGI: > 100 µM
HCC-2998 colon
  TGI: > 100 µM
K-562 leukemia
  TGI: > 100 µM
NCI-H226 lung
  TGI: > 100 µM
NCI/ADR-RES ovarian
  TGI: > 100 µM
PC-3 prostate
  TGI: > 100 µM
SF-295 CNS
  TGI: > 100 µM
SN12C renal
  TGI: > 100 µM
SNB-19 CNS
  TGI: > 100 µM
SW-620 colon
  TGI: > 100 µM
TK-10 renal
  TGI: > 100 µM
UACC-257 melanoma
  TGI: > 100 µM

## C=C1CC(Cn2ccc(=O)[nH]c2=O)(c2ccc(-c3ccccc3)cc2)OC1=O (stereo not given)
A549 NSCLC
  TGI: 24.9 µM
ACHN renal
  TGI: 3.25 µM
DU-145 prostate
  TGI: 2.88 µM
EKVX NSCLC
  TGI: 29.9 µM
HCC-2998 colon
  TGI: 4.12 µM
K-562 leukemia
  TGI: 1.53 µM
NCI-H226 lung
  TGI: 13.6 µM
NCI/ADR-RES ovarian
  TGI: 4.64 µM
PC-3 prostate
  TGI: 7.52 µM
SF-295 CNS
  TGI: 25.3 µM
SN12C renal
  TGI: 21.3 µM
SNB-19 CNS
  TGI: 34 µM
SW-620 colon
  TGI: 0.941 µM
TK-10 renal
  TGI: 2.32 µM
UACC-257 melanoma
  TGI: 3.88 µM

## CCOC(=O)[C@@H]1C[C@H]1c1ccc(O)c(O)c1
A549 NSCLC
  TGI: > 100 µM
ACHN renal
  TGI: > 100 µM
DU-145 prostate
  TGI: > 100 µM
EKVX NSCLC
  TGI: > 100 µM
HCC-2998 colon
  TGI: 91.9 µM
K-562 leukemia
  TGI: 51.3 µM
NCI-H226 lung
  TGI: > 100 µM
NCI/ADR-RES ovarian
  TGI: > 100 µM
PC-3 prostate
  TGI: > 100 µM
SF-295 CNS
  TGI: > 100 µM
SN12C renal
  TGI: > 100 µM
SNB-19 CNS
  TGI: > 100 µM
SW-620 colon
  TGI: > 100 µM
TK-10 renal
  TGI: > 100 µM
UACC-257 melanoma
  TGI: > 100 µM

## O[C@@]1(c2cccs2)c2cccc(Cl)c2[C@](O)(c2cccs2)c2cccc(Cl)c21
A549 NSCLC
  TGI: 43.7 µM
ACHN renal
  TGI: 39.5 µM
DU-145 prostate
  TGI: 64.6 µM
EKVX NSCLC
  TGI: 44.9 µM
HCC-2998 colon
  TGI: 32.7 µM
K-562 leukemia
  TGI: > 100 µM
NCI-H226 lung
  TGI: 57.1 µM
NCI/ADR-RES ovarian
  TGI: > 100 µM
PC-3 prostate
  TGI: 50.7 µM
SF-295 CNS
  TGI: 31.3 µM
SN12C renal
  TGI: 34.1 µM
SNB-19 CNS
  TGI: 80.3 µM
SW-620 colon
  TGI: 44.8 µM
TK-10 renal
  TGI: 99.4 µM
UACC-257 melanoma
  TGI: 30.3 µM

## c1cc(-c2csc(-c3ccsc3)c2)cs1
A549 NSCLC
  TGI: > 100 µM
ACHN renal
  TGI: > 100 µM
DU-145 prostate
  TGI: > 100 µM
EKVX NSCLC
  TGI: > 100 µM
HCC-2998 colon
  TGI: > 100 µM
K-562 leukemia
  TGI: > 100 µM
NCI-H226 lung
  TGI: 83.2 µM
NCI/ADR-RES ovarian
  TGI: > 100 µM
PC-3 prostate
  TGI: > 100 µM
SF-295 CNS
  TGI: > 100 µM
SN12C renal
  TGI: > 100 µM
SNB-19 CNS
  TGI: > 100 µM
SW-620 colon
  TGI: > 100 µM
TK-10 renal
  TGI: > 100 µM
UACC-257 melanoma
  TGI: > 100 µM

## CCC(CS(=O)(=O)O)[N+](=O)[O-] (stereo not given)
A549 NSCLC
  TGI: > 100 µM
ACHN renal
  TGI: > 100 µM
DU-145 prostate
  TGI: > 100 µM
EKVX NSCLC
  TGI: > 100 µM
HCC-2998 colon
  TGI: > 100 µM
K-562 leukemia
  TGI: > 100 µM
NCI-H226 lung
  TGI: > 100 µM
NCI/ADR-RES ovarian
  TGI: > 100 µM
PC-3 prostate
  TGI: > 100 µM
SF-295 CNS
  TGI: > 100 µM
SN12C renal
  TGI: > 100 µM
SNB-19 CNS
  TGI: > 100 µM
SW-620 colon
  TGI: > 100 µM
TK-10 renal
  TGI: > 100 µM
UACC-257 melanoma
  TGI: > 100 µM
